Reference: US20220347175A1, “PYRIDAZINONE DERIVATIVE” (Sumitomo Dainippon Pharma Co., Ltd., priority 2018, published 2022)

molecular target: T1, human Nav1.1 (Homo sapiens, UniProt P35498); experiment: Amplification of Nav1.1-derived voltage-dependent sodium current (Nav1.1 current), cell line stably expressing human Nav1.1, automated patch clamp; format: cell-based; details: 10 μmol/L compound (Test Result 5)
T1 construct: host or cells: HEK293
Protocol: Test 1: Evaluation of the Amplification of Nav1.1-Derived Voltage-Dependent Sodium Current (Nav1.1 Current) by Using a Cell Line Stably Expressing Human Nav1.1
(1) Preparation of Test Compounds
Test compounds were prepared by dissolving in DMSO at 200 times of the concentration at evaluation, and diluting the obtained solution to twice the concentration of evaluation with an extracellular fluid (135 mmol/L NaCl, 4 mmol/L KCl, 1 mmol/L MgCl2, 5 mmol/L CaCl2, 5 mmol/L Glucose, 10 mmol/L HEPES).
(2) Induction and Measurement of Nav1.1 Current
A HEK293 cell line stably expressing human Nav1.1 (cat #CYL3009, Millipore, USA, Human Embryonic Kidney 293) was purchased, and used in the present test. Nav1.1 current was induced by stimulating Ramp wave voltage. Detection of current which accompanied with the stimulation of voltage was carried out by a patch-clamp voltage-clamp method using HTS automated patch clamp system (SynchroPatch 768PE, Nanion Technologies GmbH, Germany). Only cells with more than 500 pA of voltage-dependent sodium channel current were used for the evaluation of the activity of compounds on Nav1.1 current because there was the possibility that currents derived from endogenous voltage-dependent sodium channels accounted for large proportion in cells with less than 500 pA of voltage-dependent sodium channel current which was induced by stimulating Ramp wave voltage.
(3) Pharmacologic Effect on Nav1.1 Current
The effect of test compounds on the amplification of Nav1.1-derived voltage-dependent sodium current was evaluated by using a cell line stably expressing human Nav1.1 and HTS automated patch clamp system. In other words, test compounds were added in an extracellular fluid containing 1% DMSO, and evaluated as a change of the peak value of Nav1.1 current and the area under the curve (AUC).
(4) Method for Pharmacological Evaluation
The Nav1.1 current amplification rates of test compounds were calculated by the following formula:
Nav1.1 current amplification rate (%)=100×[the peak value of Nav1.1 current or the area under the curve after the addition of test compounds]/[the peak value of Nav1.1 current or the area under the curve before the addition of test compounds]−100

| Structure (SMILES) | Nav1.1 current amplification rate (%) |
| --- | --- |
| N#Cc1ccc(NC(=O)Cn2nc(N3CCCCCCC3)ccc2=O)cc1 [Example 12] | 241% |
| N#Cc1ccc(NC(=O)Cn2nc(N3CCC(C(F)(F)F)CC3)ccc2=O)cc1 [Example 10] | 124% |
| Cc1ccc(-c2ccc(=O)n(CC(=O)Nc3cncnc3)n2)cc1 [Example 141] | 46% |
| CC1CC=C(c2ccc(=O)n(CC(=O)Nc3ccc(-c4cnn(C)c4)nc3)n2)CC1 (racemic) [Example 375] | 173% |
| CC1CCN(c2ccc(=O)n(CC(=O)Nc3ccc(C#N)cc3)n2)C1 (stereo not shown) [Example 19] | 98% |

same assay, conditions: 10 μmol/L compound (Test Result 5); read-out: Nav1.1 current amplification rate (%)

| activation at 10 µM | Structure (SMILES) |
| --- | --- |
| 10% | CC1(C)C=C(c2ccc(=O)n(CC(=O)Nc3ccc(C#N)cc3)n2)CCO1 [Example 507] |
| 246% | CC1CCN(c2ccc(=O)n(CC(=O)Nc3ccc(C#N)cc3)n2)CC1 [Example 1, N-(4-cyanophenyl)-2-[3-(4-methylpiperidin-1-yl)-6-oxopyridazin-1(6H)-yl]acetamide] |
| 24% | N#Cc1ccsc1-c1ccc(=O)n(CC(=O)Nc2ccn3ncnc3c2)n1 [Example 498] |

same assay, conditions: Concentration 1 μM (Test Result 7); read-out: Nav1.1 current amplification rate (%)

| activation at 1 µM | Structure (SMILES) |
| --- | --- |
| 115% | CCC1CC=C(c2ccc(=O)n(CC(=O)Nc3ccn4ncnc4c3)n2)CC1 (stereo not shown) [Example 554] |
| 208% | CC1CC=C(c2ccc(=O)n(CC(=O)Nc3ccc4ccncc4c3)n2)CC1 (stereo not shown) [Example 544] |
| 247% | CN(c1ccc(=O)n(CC(=O)N2CCc3c(-c4ccnnc4)cccc32)n1)C1CCCC1 [Example 562] |

same assay, conditions: Concentration 10 μM (Test Result 7); read-out: Nav1.1 current amplification rate (%)

| activation at 10 µM | Structure (SMILES) |
| --- | --- |
| 34% | CN(CC1CC1)c1ccc(=O)n(CC(=O)Nc2ccn3ncnc3c2)n1 [Example 559] |
| 16% | CC1CC=C(c2ccc(=O)n(CC(=O)Nc3ncc4ccccc4n3)n2)CC1 (stereo not shown) [Example 551] |

same assay, conditions: Concentration 50 μM (Test Result 7); read-out: Nav1.1 current amplification rate (%)

| activation at 50 µM | Structure (SMILES) |
| --- | --- |
| 393% | CN(c1ccc(=O)n(CC(=O)Nc2ccc3cnccc3c2)n1)C1CC2(CC2)C1 [Example 569] |

same assay, conditions: compound 50 μmol/L; HEK293 stably expressing human Nav1.1

| Nav1.1 current amplification rate (%) | Structure (SMILES) |
| --- | --- |
| 9% | COCCCN1CC2(CCN(C(=O)Cn3nc(C4=CCC(C)CC4)ccc3=O)C2)C1 (racemic) [Example 308] |
| 36% | CC1CC=C(c2ccc(=O)n(CC(=O)N3CCN(c4ccn(C)n4)CC3)n2)CC1 (stereo not shown) [Example 412] |
| 43% | CC1CC=C(c2ccc(=O)n(CC(=O)Nc3ccc4ncccc4c3)n2)CC1 (racemic) [Example 357] |
| 32% | CC1CC=C(c2ccc(=O)n(CC(=O)Nc3cncc(CN(C)C)c3)n2)CC1 (racemic) [Example 365] |

same assay, conditions: compound 50 μmol/L; HEK293 stably expressing human Nav1.1; read-out: Nav1.1 current amplification rate (%)

| activation at 50 µM | Structure (SMILES) |
| --- | --- |
| 255% | Cc1cc(=O)n(CC(=O)Nc2ccn3cnnc3c2)nc1C1=CCC(C)(C)CC1 [Example 505] |

same assay, conditions: concentration of each compound 1 μmol/L (Test Result 6)

| Nav1.1 current amplification rate (%) | Structure (SMILES) |
| --- | --- |
| 41% | CC1CC=C(c2ccc(=O)n(CC(=O)N3CCc4c(CNC5CCOCC5)cccc43)n2)CC1 (racemic) [Example 317] |
| 44% | CC1CC=C(c2ccc(=O)n(CC(=O)Nc3ccc4nccn4c3)n2)CC1 (racemic) [Example 343] |
| 37% | Cc1cc2ccc(NC(=O)Cn3nc(C4=CCC(C)CC4)ccc3=O)cn2n1 (racemic) [Example 347] |
| 25% | Cc1cc(NC(=O)Cn2nc(C3=CCC(C)CC3)ccc2=O)cc(C)n1 (racemic) [Example 364] |
| 69% | CC1CC=C(c2ccc(=O)n(CC(=O)Nc3ccc4cncn4c3)n2)CC1 (racemic) [Example 344] |
| 31% | CC1CC=C(c2ccc(=O)n(CC(=O)Nc3ccc4ncnn4n3)n2)CC1 (racemic) [Example 350] |
| 38% | CC1CC=C(c2ccc(=O)n(CC(=O)Nc3cncc(C4=CCN(C)C4)c3)n2)CC1 (racemic) [Example 367] |

same assay, conditions: concentration of each compound 1 μmol/L (Test Result 6); read-out: Nav1.1 current amplification rate (%)

| activation at 1 µM | Structure (SMILES) |
| --- | --- |
| 214% | O=C(Cn1nc(N2CCC3(CCC3)C2)ccc1=O)Nc1ccc2cncnc2c1 [Example 236, 2-[3-(6-azaspiro[3.4]octan-6-yl)-6-oxopyridazin-1(6H)-yl]-N-(quinazolin-7-yl)acetamide] |
| 135% | O=C(Cn1nc(C2=CCCCC2)ccc1=O)N1CCc2c(CN3CCOCC3)cccc21 [Example 519] |
